Measured values reported in the supplement of paper PMC5908809.

How the values were obtained:
IMC-1 (IL-2 20 ng/mL) [1] = assay: percent inhibition of viability; higher = more inhibition; details: 72 h
YT (IL-2 2.5 ng/mL) [2] = assay: as above; details: 72 h
NK-92 (IL-2 2.5 ng/mL) [3] = assay: as above; details: 72 h
[4] = system: normal primary NK cells, pool 3 (3 donors) (IL-2 2.5 ng/mL); assay: as above; details: 72 h
DERL-7 (IL-2 2.5 ng/mL) [5] = assay: as above; details: 72 h
NK-YS (IL-2 2.5 ng/mL) [6] = assay: as above; details: 72 h
[7] = system: normal primary NK cells, pool 1 (3 donors), resting (IL-2 0 ng/mL); assay: as above; details: 72 h
SNK-6 (IL-2 2.5 ng/mL) [8] = assay: as above; details: 72 h
KHYG-1 (IL-2 2.5 ng/mL) [9] = assay: as above; details: 72 h
[10] = system: normal primary NK cells, pool 1 (3 donors) (IL-2 2.5 ng/mL); assay: as above; details: 72 h
[11] = system: normal primary NK cells, pool 2 (3 donors) (IL-2 2.5 ng/mL); assay: as above; details: 72 h
KAI3 (IL-2 2.5 ng/mL) [12] = assay: as above; details: 72 h
NKL (IL-2 2.5 ng/mL) [13] = assay: as above; details: 72 h
[14] = system: normal NK cells expanded with K562-aAPC; assay: drug sensitivity score (DSS) (DSS units); higher = more sensitive; extreme values may be limits of the assay; details: 72 h; IL-2 2.5 ng/mL
Method: (§1)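 Drug sensitivity and resistance testing on K562-aAPC-expanded normal NK cells: 5 concentrations (10-fold steps over a 10,000-fold range), 72 h at 37 °C, viability by CellTiter-Glo normalised to DMSO and benzethonium chloride controls; DSS from the fitted curve.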

IMC-1 (IL-2 20 ng/mL) [15] = assay: as above; details: 72 h
YT (IL-2 2.5 ng/mL) [16] = assay: as above; details: 72 h
NK-92 (IL-2 2.5 ng/mL) [17] = assay: as above; details: 72 h
[18] = system: normal primary NK cells, pool 3 (3 donors) (IL-2 2.5 ng/mL); assay: as above; details: 72 h
DERL-7 (IL-2 2.5 ng/mL) [19] = assay: as above; details: 72 h
NK-YS (IL-2 2.5 ng/mL) [20] = assay: as above; details: 72 h
[21] = system: normal primary NK cells, pool 1 (3 donors), resting (IL-2 0 ng/mL); assay: as above; details: 72 h
SNK-6 (IL-2 2.5 ng/mL) [22] = assay: as above; details: 72 h
KHYG-1 (IL-2 2.5 ng/mL) [23] = assay: as above; details: 72 h
[24] = system: normal primary NK cells, pool 1 (3 donors) (IL-2 2.5 ng/mL); assay: as above; details: 72 h
[25] = system: normal primary NK cells, pool 2 (3 donors) (IL-2 2.5 ng/mL); assay: as above; details: 72 h
KAI3 (IL-2 2.5 ng/mL) [26] = assay: as above; details: 72 h
NKL (IL-2 2.5 ng/mL) [27] = assay: as above; details: 72 h
[28] = system: normal NK cells expanded with K562-aAPC; assay: percent inhibition of viability; higher = more inhibition; details: 72 h, IL-2 2.5 ng/mL
Method: as §1

Cc1c(C(=O)Nc2ccc(N3C[C@@H](C)O[C@@H](C)C3)nc2)cccc1-c1ccc(OC(F)(F)F)cc1 [Sonidegib] (max concentration tested 10000 nM)
percent inhibition of viability [%]
Details | 1 nM | 10 nM | 100 nM | 1000 nM | 10000 nM
DERL-7 (IL-2 2.5 ng/mL) [5] | -6.39 | 0.97 | 3.22 | 7.44 | 7.71
IMC-1 (IL-2 20 ng/mL) [1] | -2.05 | 0.95 | 10.7 | 7.33 | 66.2
KAI3 (IL-2 2.5 ng/mL) [12] | -9.76 | 2.17 | -0.83 | -2.67 | 26.2
KHYG-1 (IL-2 2.5 ng/mL) [9] | 1.09 | -0.52 | 4.83 | 5.39 | 33.4
NK-92 (IL-2 2.5 ng/mL) [3] | 5.8 | 1.52 | 11.2 | 33.5 | 79.3
NK-YS (IL-2 2.5 ng/mL) [6] | -0.38 | 2.73 | 7.41 | 11.1 | 31.1
NKL (IL-2 2.5 ng/mL) [13] | -6.67 | 3.73 | -0.64 | 6.28 | 26.8
SNK-6 (IL-2 2.5 ng/mL) [8] | 4.68 | 24.7 | 23.1 | 15.3 | 25.6
YT (IL-2 2.5 ng/mL) [2] | 1.1 | 5.23 | 7.91 | 6.65 | 37
[4] | -16.4 | -5.96 | 3.9 | -2.57 | -0.38
[7] | 7.84 | -5.48 | 2.43 | -23.8 | -13.6
[10] | 2.22 | -1.01 | 1.87 | -6.02 | -0.78
[11] | -5.58 | -3.94 | 1.51 | -3.08 | -2.7
[28] | -1.35 | -1.33 | -0.97 | 6.62 | 11.9

Details | drug sensitivity score
DERL-7 (IL-2 2.5 ng/mL) [19] | 0
IMC-1 (IL-2 20 ng/mL) [15] | 4.85
KAI3 (IL-2 2.5 ng/mL) [26] | 0.87
KHYG-1 (IL-2 2.5 ng/mL) [23] | 2.43
NK-92 (IL-2 2.5 ng/mL) [17] | 8.23
NK-YS (IL-2 2.5 ng/mL) [20] | 2.3
NKL (IL-2 2.5 ng/mL) [27] | 2.01
SNK-6 (IL-2 2.5 ng/mL) [22] | 10.6
YT (IL-2 2.5 ng/mL) [16] | 2.89
[14] | 0.28
[18] | 0
[21] | 0
[24] | 0
[25] | 0

COc1cc2nccc(Oc3ccc(NC(=O)C4(C(=O)Nc5ccc(F)cc5)CC4)cc3)c2cc1OC [Cabozantinib] (max concentration tested 1000 nM)
percent inhibition of viability [%]
Details | 0.1 nM | 1 nM | 10 nM | 100 nM | 1000 nM
DERL-7 (IL-2 2.5 ng/mL) [5] | 4.09 | 2.17 | 6.31 | -1.21 | 8.67
IMC-1 (IL-2 20 ng/mL) [1] | -7.19 | 0.46 | 1.98 | 6.03 | 8.61
KAI3 (IL-2 2.5 ng/mL) [12] | -1.21 | 2.25 | 0.33 | -5.2 | 0.09
KHYG-1 (IL-2 2.5 ng/mL) [9] | -1.92 | 1.46 | 4.91 | 3.42 | 7.82
NK-92 (IL-2 2.5 ng/mL) [3] | 1.61 | 12.2 | 13.4 | 2.98 | 25.1
NK-YS (IL-2 2.5 ng/mL) [6] | -3.98 | -1.22 | 1.67 | -2.46 | 0.65
NKL (IL-2 2.5 ng/mL) [13] | -19 | -5.16 | -4.38 | -6.13 | 19.2
SNK-6 (IL-2 2.5 ng/mL) [8] | 7.18 | 7.13 | 10.3 | -6.13 | -0.11
YT (IL-2 2.5 ng/mL) [2] | -1.79 | -0.81 | 0.31 | 0.38 | 11.3
[4] | -18.8 | -3.79 | 10.5 | -12.7 | -3.82
[7] | 8.87 | -5.07 | -5.31 | -16.9 | 11.5
[10] | -2.72 | -8.6 | -1.12 | -10.1 | -9.52
[11] | -8.26 | 3.55 | 9.65 | -7.89 | 11.1
[28] | -0.51 | 2.22 | 1.52 | 13.2 | 5.74

Details | drug sensitivity score
DERL-7 (IL-2 2.5 ng/mL) [19] | 0
IMC-1 (IL-2 20 ng/mL) [15] | 0
KAI3 (IL-2 2.5 ng/mL) [26] | 0
KHYG-1 (IL-2 2.5 ng/mL) [23] | 0
NK-92 (IL-2 2.5 ng/mL) [17] | 1.73
NK-YS (IL-2 2.5 ng/mL) [20] | 0
NKL (IL-2 2.5 ng/mL) [27] | 0.33
SNK-6 (IL-2 2.5 ng/mL) [22] | 0
YT (IL-2 2.5 ng/mL) [16] | 0.02
[14] | 0
[18] | 0
[21] | 0.01
[24] | 0
[25] | 0

COc1cc2c(Oc3ccc(NC(=O)C4(C(=O)Nc5ccc(F)cc5)CC4)cc3F)ccnc2cc1OCCCN1CCOCC1 [Foretinib] (max concentration tested 1000 nM)
percent inhibition of viability [%]
Details | 0.1 nM | 1 nM | 10 nM | 100 nM | 1000 nM
DERL-7 (IL-2 2.5 ng/mL) [5] | 3.24 | -0.68 | 2.22 | -8.07 | 70.8
IMC-1 (IL-2 20 ng/mL) [1] | -6.29 | -10.2 | -1.31 | 3.45 | 27.1
KAI3 (IL-2 2.5 ng/mL) [12] | 3.99 | -0.1 | 0.67 | 11.6 | 31.7
KHYG-1 (IL-2 2.5 ng/mL) [9] | 1.36 | -8.14 | -3.69 | 18.4 | 49.9
NK-92 (IL-2 2.5 ng/mL) [3] | -17.3 | -12.3 | -5.79 | 19.9 | 34.9
NK-YS (IL-2 2.5 ng/mL) [6] | -1.72 | -7.82 | -1.95 | 11.5 | 70.2
NKL (IL-2 2.5 ng/mL) [13] | -12.1 | -16.5 | -5.45 | 16.3 | 49.9
SNK-6 (IL-2 2.5 ng/mL) [8] | -1.08 | -15.3 | -7.01 | -4.86 | 49.9
YT (IL-2 2.5 ng/mL) [2] | -1.93 | -8.62 | -2.43 | 13.9 | 37.3
[4] | -8.78 | -7.33 | 8.91 | 6.17 | 10.7
[7] | -4.45 | 1.67 | 17.2 | 10.1 | 18.4
[10] | 3.18 | -0.67 | 9.57 | 11.1 | 15.9
[11] | -11.2 | -4.47 | 3.97 | -2.36 | -2.41
[28] | -5.4 | -5.19 | -3.74 | 12.6 | 61

Details | drug sensitivity score
DERL-7 (IL-2 2.5 ng/mL) [19] | 3.35
IMC-1 (IL-2 20 ng/mL) [15] | 1.64
KAI3 (IL-2 2.5 ng/mL) [26] | 2.98
KHYG-1 (IL-2 2.5 ng/mL) [23] | 5.21
NK-92 (IL-2 2.5 ng/mL) [17] | 4.04
NK-YS (IL-2 2.5 ng/mL) [20] | 5.79
NKL (IL-2 2.5 ng/mL) [27] | 5
SNK-6 (IL-2 2.5 ng/mL) [22] | 2.27
YT (IL-2 2.5 ng/mL) [16] | 3.73
[14] | 5.37
[18] | 0.32
[21] | 4.1
[24] | 1.19
[25] | 0
